Literature values in patent US20200085789A1, “USE OF A PROTEASOME INHIBITOR FOR THE TREATMENT OF CENTRAL NERVOUS SYSTEM (CNS) CANCERS” (Celgene International II Sàrl, priority 2017, published 2020).

Conditions: in vivo; cited from earlier work

Which “crossing of the blood brain barrier” value does the source give for CC(C)C[C@H](NC(=O)[C@H](Cc1ccccc1)NC(=O)c1cnccn1)B(O)O [BTZ, bortezomib, reference compound] here?
Its value is “does not cross the blood brain barrier”.
